Data published in ChEMBL document CHEMBL4385613, “Discovery of Conformational Control Inhibitors Switching off the Activated c-KIT and Targeting a Broad Range of Clinically Relevant c-KIT Mutants” (J Med Chem, 2019).
Active and inactive are the calls of the source. The calls are words filed in the database; no cut-off is given here.

Legend:
Mus musculus = experiment: Decrease in c-KIT phosphorylation in NOD-SCID mouse xenografted with human GIST430 cells harboring c-KIT exon 11 primary in-frame V560-L576 deletion mutant and exon 13 heterozygous secondary missense V654A mutant at 20 mg/kg, po measured after 8 hrs by immunoblotting analysis relative to control; assay type: functional
[1] = molecular target: Mast/stem cell growth factor receptor Kit (Homo sapiens, UniProt P10721); experiment: Inhibition of unactivated recombinant human N-terminal 6x-His-tagged c-KIT (547 to 935 residues)/(694 to 753 residues deletion) expressed in baculovirus infected Sf9 insect cells assessed as decrease in poly (Glu,Tyr) 4:1 phosphorylation incubated for 30 mins followed by ATP addition and measured after 120 mins by Kinase Glo based luminescence assay
[2] = system: Mast/stem cell growth factor receptor Kit (Homo sapiens), P10721 [V560G]; experiment: Inhibition of human c-KIT JM domain exon 11 V560G single mutant at 100 nM using poly (Glu,Tyr) 4:1 as substrate in presence of 33P-gamma-ATP by hotspot kinase assay relative to control
Mast/stem cell growth factor receptor Kit (Homo sapiens), P10721 [V560G], sequence (P10721 whole entry V560G, the tested form may be a part): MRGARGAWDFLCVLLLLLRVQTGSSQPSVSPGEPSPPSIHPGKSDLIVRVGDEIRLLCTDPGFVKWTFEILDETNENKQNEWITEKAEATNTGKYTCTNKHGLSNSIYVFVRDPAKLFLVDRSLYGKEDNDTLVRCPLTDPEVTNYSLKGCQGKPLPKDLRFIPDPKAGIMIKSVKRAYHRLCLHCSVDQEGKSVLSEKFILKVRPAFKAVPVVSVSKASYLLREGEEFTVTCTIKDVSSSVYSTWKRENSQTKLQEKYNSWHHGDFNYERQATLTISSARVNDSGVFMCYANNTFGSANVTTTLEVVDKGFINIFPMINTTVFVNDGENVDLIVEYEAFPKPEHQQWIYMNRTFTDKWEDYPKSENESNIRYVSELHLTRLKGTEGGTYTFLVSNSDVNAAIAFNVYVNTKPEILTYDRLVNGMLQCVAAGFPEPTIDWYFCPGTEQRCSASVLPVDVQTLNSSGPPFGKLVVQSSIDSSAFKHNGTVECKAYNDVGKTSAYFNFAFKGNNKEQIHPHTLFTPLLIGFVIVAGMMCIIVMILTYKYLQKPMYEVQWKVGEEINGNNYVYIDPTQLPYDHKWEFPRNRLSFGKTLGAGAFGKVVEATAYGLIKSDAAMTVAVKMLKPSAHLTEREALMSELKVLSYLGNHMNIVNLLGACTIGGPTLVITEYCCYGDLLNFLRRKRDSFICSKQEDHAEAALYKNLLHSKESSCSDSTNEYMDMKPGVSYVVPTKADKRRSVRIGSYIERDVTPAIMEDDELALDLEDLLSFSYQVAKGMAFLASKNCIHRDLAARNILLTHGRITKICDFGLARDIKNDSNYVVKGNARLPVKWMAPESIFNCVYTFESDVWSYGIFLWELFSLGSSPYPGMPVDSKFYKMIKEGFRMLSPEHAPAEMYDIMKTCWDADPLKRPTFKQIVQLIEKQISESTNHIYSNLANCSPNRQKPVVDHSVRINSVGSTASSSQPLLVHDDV

[3] = system: Mast/stem cell growth factor receptor Kit (Homo sapiens), P10721 [V560G]; experiment: Inhibition of human c-KIT JM domain exon 11 V560G single mutant at 10 nM using poly (Glu,Tyr) 4:1 as substrate in presence of 33P-gamma-ATP by hotspot kinase assay relative to control
[4] = system: Mast/stem cell growth factor receptor Kit (Homo sapiens), P10721 [K642E]; experiment: Inhibition of human c-KIT ATP binding domain exon 13 K642E single mutant at 100 nM using poly (Glu,Tyr) 4:1 as substrate in presence of 33P-gamma-ATP by hotspot kinase assay relative to control
Mast/stem cell growth factor receptor Kit (Homo sapiens), P10721 [K642E], sequence (P10721 whole entry K642E, the tested form may be a part): as the sequence (P10721 whole entry V560G, the tested form may be a part) above, with G560V, K642E counted along it

[5] = system: Mast/stem cell growth factor receptor Kit (Homo sapiens), P10721 [K642E]; experiment: Inhibition of human c-KIT ATP binding domain exon 13 K642E single mutant at 10 nM using poly (Glu,Tyr) 4:1 as substrate in presence of 33P-gamma-ATP by hotspot kinase assay relative to control
[6] = molecular target: Mast/stem cell growth factor receptor Kit (Homo sapiens, UniProt P10721, D816H); experiment: Inhibition of human c-KIT A loop exon 17 D816H single mutant using poly (Glu,Tyr) 4:1 as substrate in presence of 33P-gamma-ATP by hotspot kinase assay
Mast/stem cell growth factor receptor Kit (Homo sapiens, UniProt P10721, D816H), sequence (P10721 26-976 D816H limits assumed): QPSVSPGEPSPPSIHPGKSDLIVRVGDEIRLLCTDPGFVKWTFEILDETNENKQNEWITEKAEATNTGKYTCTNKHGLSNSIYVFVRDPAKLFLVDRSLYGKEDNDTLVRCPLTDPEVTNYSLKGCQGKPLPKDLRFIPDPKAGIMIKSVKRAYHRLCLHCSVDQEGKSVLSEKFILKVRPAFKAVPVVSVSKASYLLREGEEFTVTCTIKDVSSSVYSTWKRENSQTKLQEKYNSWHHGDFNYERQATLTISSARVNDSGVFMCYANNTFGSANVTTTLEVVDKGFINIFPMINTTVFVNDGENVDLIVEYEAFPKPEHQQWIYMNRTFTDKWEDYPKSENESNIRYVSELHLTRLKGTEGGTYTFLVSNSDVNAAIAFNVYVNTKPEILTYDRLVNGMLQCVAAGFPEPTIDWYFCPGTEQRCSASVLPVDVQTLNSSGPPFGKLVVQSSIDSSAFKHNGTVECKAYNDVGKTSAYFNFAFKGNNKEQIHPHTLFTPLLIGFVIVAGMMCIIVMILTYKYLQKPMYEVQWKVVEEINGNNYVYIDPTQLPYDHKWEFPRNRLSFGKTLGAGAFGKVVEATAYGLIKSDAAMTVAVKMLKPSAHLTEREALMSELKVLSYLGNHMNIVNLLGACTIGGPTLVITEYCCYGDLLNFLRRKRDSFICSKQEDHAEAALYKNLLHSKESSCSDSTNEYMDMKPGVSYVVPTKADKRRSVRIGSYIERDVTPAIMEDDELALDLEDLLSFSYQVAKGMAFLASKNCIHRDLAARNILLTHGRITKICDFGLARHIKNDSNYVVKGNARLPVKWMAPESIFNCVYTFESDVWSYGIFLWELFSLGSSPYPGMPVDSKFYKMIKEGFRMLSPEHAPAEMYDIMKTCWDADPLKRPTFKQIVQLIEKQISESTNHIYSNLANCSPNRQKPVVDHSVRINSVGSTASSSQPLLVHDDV

[7] = molecular target: Mast/stem cell growth factor receptor Kit (Homo sapiens, UniProt P10721, Y823D); experiment: Inhibition of human c-KIT A loop exon 17 Y823D single mutant using poly (Glu,Tyr) 4:1 as substrate in presence of 33P-gamma-ATP by hotspot kinase assay
Mast/stem cell growth factor receptor Kit (Homo sapiens, UniProt P10721, Y823D), sequence (P10721 26-976 Y823D limits assumed): as the sequence (P10721 26-976 D816H limits assumed) above, with H791D, Y798D counted along it

[8] = molecular target: Mast/stem cell growth factor receptor Kit (Homo sapiens, UniProt P10721, A829P); experiment: Inhibition of human c-KIT A loop exon 18 A829P single mutant using poly (Glu,Tyr) 4:1 as substrate in presence of 33P-gamma-ATP by hotspot kinase assay
Mast/stem cell growth factor receptor Kit (Homo sapiens, UniProt P10721, A829P), sequence (P10721 26-976 A829P limits assumed): as the sequence (P10721 26-976 D816H limits assumed) above, with H791D, A804P counted along it

[9] = system: Mast/stem cell growth factor receptor Kit (Homo sapiens), P10721 [V559D,V654A]; experiment: Inhibition of human c-KIT […] V559D/V654A double mutant at 100 nM using poly (Glu,Tyr) 4:1 as substrate in presence of 33P-gamma-ATP by hotspot kinase assay relative to control
Mast/stem cell growth factor receptor Kit (Homo sapiens), P10721 [V559D,V654A], sequence (P10721 whole entry V559D/V654A): as the sequence (P10721 whole entry V560G, the tested form may be a part) above, with V559D, G560V, V654A counted along it

[10] = molecular target: Mast/stem cell growth factor receptor Kit (Homo sapiens, UniProt P10721, N822K/V560G); experiment: Inhibition of human c-KIT A loop exon 11/17 V560G/N822K double mutant using poly (Glu,Tyr) 4:1 as substrate in presence of 33P-gamma-ATP by hotspot kinase assay
Mast/stem cell growth factor receptor Kit (Homo sapiens, UniProt P10721, N822K/V560G), sequence (P10721 26-976 V560G/N822K limits assumed): as the sequence (P10721 26-976 D816H limits assumed) above, with V535G, H791D, N797K counted along it

[11] = system: Mast/stem cell growth factor receptor Kit (Homo sapiens), P10721 [V560G,N822K]; experiment: Inhibition of human c-KIT A loop exon 11/17 V560G/N822K double mutant at 10 nM using poly (Glu,Tyr) 4:1 as substrate in presence of 33P-gamma-ATP by hotspot kinase assay relative to control
Mast/stem cell growth factor receptor Kit (Homo sapiens), P10721 [V560G,N822K], sequence (P10721 whole entry V560G/N822K): as the sequence (P10721 whole entry V560G, the tested form may be a part) above, with N822K counted along it

GISTT1 = experiment: Antiproliferative activity against human GISTT1 cells harboring heterozygous V560-Y578 del mutation assessed as reduction in cell viability by methylene blue staining based assay; assay type: functional
GIST882 = experiment: Antiproliferative activity against human GIST882 cells harboring c-KIT exon 13 homozygous primary K642E mutant assessed as reduction in cell viability by methylene blue staining based assay; assay type: functional
GIST430 = experiment: Antiproliferative activity against human GIST430 cells harboring c-KIT exon 11 primary in-frame V560-L576 deletion mutant and exon 13 heterozygous secondary missense V654A mutant assessed as reduction in cell viability by MTS assay; assay type: functional
GIST48 [12] = experiment: Antiproliferative activity against human GIST48 cells harboring c-KIT exon 11 homozygous primary missense V560D mutant and exon 17 heterozygous secondary D820A mutant assessed as reduction in cell viability by MTS assay; assay type: functional
GIST48 [13] = experiment: Antiproliferative activity against human GIST48 cells harboring c-KIT exon 11 homozygous primary missense V560D mutant and exon 17 heterozygous secondary D820A mutant assessed as reduction in cell viability by methylene blue staining based assay; assay type: functional
[14] = Antiproliferative activity against human GIST48B cells assessed as reduction in cell viability by methylene blue staining based assay; assay type: functional
[15] = Antiproliferative activity against human Detroit 551 assessed as reduction in cell viability after 72 hrs by MTS assay; assay type: cell-based; conditions: Detroit 551 cells
[16] = system: Mast/stem cell growth factor receptor Kit (Homo sapiens), P10721 [UNDEFINED MUTATION]; experiment: Inhibition of c-KIT V560-L576 deletion/V654A double mutant phosphorylation in human GIST430 cells at 10 to 100 nM measured after 24 to 72 hrs by Western blot analysis; assay type: cell-based
Mast/stem cell growth factor receptor Kit (Homo sapiens), P10721 [UNDEFINED MUTATION], sequence (P10721 whole entry, looked up, stated change not applied): as the sequence (P10721 whole entry V560G, the tested form may be a part) above, with G560V counted along it

[17] = system: Mast/stem cell growth factor receptor Kit (Homo sapiens), P10721 [UNDEFINED MUTATION]; experiment: Inhibition of c-KIT V560-L576 deletion/V654A double mutant phosphorylation in human GIST430 cells assessed as decrease in phosphorylation of MEK at 10 to 100 nM measured after 24 to 72 hrs by Western blot analysis; assay type: cell-based
[18] = AUC in ICR mouse at 10 mg/kg, po administered as single dose measured up to 24 hrs by LC-MS/MS analysis; assay type: ADME, organism-based; set-up: dose 10 mg/kg, time < 24 hr, route oral; conditions: in vivo
[19] = Volume of distribution at steady state in ICR mouse at 2 mg/kg, iv administered as single dose measured up to 24 hrs by LC-MS/MS analysis; assay type: ADME, organism-based; conditions: in vivo, read-out: Vdss
[20] = Plasma clearance in ICR mouse at 2 mg/kg, iv administered as single dose measured up to 24 hrs by LC-MS/MS analysis; assay type: ADME, organism-based
[21] = system: Mast/stem cell growth factor receptor Kit (Homo sapiens), P10721 [D816H]; conditions: at 10 nM
Mast/stem cell growth factor receptor Kit (Homo sapiens), P10721 [D816H], sequence (P10721 whole entry D816H): as the sequence (P10721 whole entry V560G, the tested form may be a part) above, with G560V, D816H counted along it
Description: Inhibition of human c-KIT A loop exon 17 D816H single mutant at 10 nM using poly (Glu,Tyr) 4:1 as substrate in presence of 33P-gamma-ATP by hotspot kinase assay relative to control

[22] = system: Mast/stem cell growth factor receptor Kit (Homo sapiens), P10721 [D820E]; conditions: at 100 nM
Mast/stem cell growth factor receptor Kit (Homo sapiens), P10721 [D820E], sequence (P10721 whole entry D820E): as the sequence (P10721 whole entry V560G, the tested form may be a part) above, with G560V, D820E counted along it
Description: Inhibition of human c-KIT A loop exon 17 D820E single mutant at 100 nM using poly (Glu,Tyr) 4:1 as substrate in presence of 33P-gamma-ATP by hotspot kinase assay relative to control

[23] = system: Mast/stem cell growth factor receptor Kit (Homo sapiens), P10721 [D820E]; conditions: at 10 nM
Description: Inhibition of human c-KIT A loop exon 17 D820E single mutant at 10 nM using poly (Glu,Tyr) 4:1 as substrate in presence of 33P-gamma-ATP by hotspot kinase assay relative to control

Question: With `CCc1cc(NC(=O)Nc2ccc(-c3cnc(Nc4cc(N5CCN(CC)CC5)ncn4)s3)cc2)no1` as the compound, how does the inhibition in vivo at 20 mg/kg (Mus musculus) read?
Answer: Its inhibition in vivo at 20 mg/kg is 85%.

Question: What about the IC50 [1] of the same compound?
Answer: Its IC50 is 69 nM.

Question: What about the inhibition [2] of the same compound?
Answer: Its inhibition is 99%.

Question: What about the inhibition [3] of the same compound?
Answer: Its inhibition is 95%.

Question: And the inhibition [4]?
Answer: The inhibition was 99%.

Question: What about the inhibition [5] of the same compound?
Answer: Its inhibition is 82%.

Question: What about the IC50 [6] of the same compound?
Answer: Its IC50 is 0.67 nM.

Question: What about the IC50 [7] of the same compound?
Answer: Its IC50 is 0.12 nM.

Question: And the IC50 [8]?
Answer: The IC50 was 0.89 nM.

Question: What about the inhibition [9] of the same compound?
Answer: The inhibition was 43%.

Question: What about the IC50 [10] of the same compound?
Answer: The IC50 was 0.18 nM.

Question: What about the inhibition [11] of the same compound?
Answer: The inhibition was 94%.

Question: And the GI50 (GISTT1)?
Answer: The GI50 was 2.2 nM.

Question: And the GI50 (GIST882)?
Answer: The GI50 was 3 nM.

Question: What about the GI50 (GIST430) of the same compound?
Answer: The GI50 was 1 nM.

Question: And the GI50 (GIST48 [12])?
Answer: The GI50 was 2 nM.

Question: And the GI50 (GIST48 [13])?
Answer: Its GI50 is 2 nM.

Question: What about the GI50 [14] of the same compound?
Answer: Its GI50 is greater than 100 nM.

Question: And the GI50 at 72 h [15]?
Answer: Its GI50 at 72 h is greater than 10000 nM.

Question: And the inhibition [16]?
Answer: Its inhibition is “Active”.

Question: What about the inhibition [17] of the same compound?
Answer: The inhibition was “Active”.

Question: And the AUC at 24 h [18]?
Answer: Its AUC at 24 h is 2800 ng·h/mL.

Question: What about the Vd [19] of the same compound?
Answer: Its Vd is 7.1 L/kg.

Question: And the clearance [20]?
Answer: The clearance was 20.2 mL/min/kg.

Question: And the inhibition [21]?
Answer: The inhibition was 73%.

Question: What about the inhibition [22] of the same compound?
Answer: Its inhibition is 100%.

Question: And the inhibition [23]?
Answer: Its inhibition is 83%.
